Measured values as given in ChEMBL document CHEMBL3881531, “ANT2 inhibitor compounds and methods of use thereof” (2009).

Experiments:
[1] = Cytotoxicity against mouse NIH/3T3 cells assessed as cell survival at 50 uM incubated for 5 days by crystal violet staining based assay; parameters: species or system NIH3T3; conditions: read-out: Survival
[2] = biological target: T1, ADP/ATP translocase 2 (Homo sapiens) (UniProt P05141); test: Inhibition of ANT2 in human HeLa cells assessed as growth inhibition at 50 uM incubated for 5 days by crystal violet staining based assay; format: cell-based
T1 sequence (whole entry): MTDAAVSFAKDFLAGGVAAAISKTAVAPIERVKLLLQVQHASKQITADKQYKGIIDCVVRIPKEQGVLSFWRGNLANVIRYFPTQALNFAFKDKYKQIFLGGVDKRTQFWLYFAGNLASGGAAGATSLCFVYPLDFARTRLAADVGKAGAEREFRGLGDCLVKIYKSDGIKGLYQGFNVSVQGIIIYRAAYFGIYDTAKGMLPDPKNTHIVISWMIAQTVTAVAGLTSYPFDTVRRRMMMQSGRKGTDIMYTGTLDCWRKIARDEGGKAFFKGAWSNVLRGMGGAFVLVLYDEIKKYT

[3] = biological target: T1, ADP/ATP translocase 2 (Homo sapiens); test: Inhibition of ANT2 in human HeLa cells assessed as cell survival at 50 uM incubated for 5 days by crystal violet staining based assay

| SMILES | viability at 120 h, 50 µM [1] | growth inhibition (GI) [2] | Survival [3] |
| --- | --- | --- | --- |
| CC(C)CC(=O)C1C(=O)c2ccccc2C1=O | 40% | 79% | 5% |
| O=C(CC(=O)C1C(=O)c2ccccc2C1=O)c1ccccc1 | – | 84% | – |
